Test results from paper PMC9628888, “Engineering of Sulfolobus acidocaldarius for Hemicellulosic Biomass Utilization” (Journal of Microbiology and Biotechnology, 2022).

Target: T1, β-xylosidase (SSO3032) (Saccharolobus solfataricus, UniProt Q97UI4)
T1 construct: full gene cloned in pSVAmalFX-Nt6H (His6 tag)
Experiment: colorimetric pNP release at […] nm
Type: biochemical
Conditions: 1 mM pNPX, 50 mM sodium acetate pH 6.0, 90 °C, 10 min

T1 sequence (Q97UI4 entry or part of it): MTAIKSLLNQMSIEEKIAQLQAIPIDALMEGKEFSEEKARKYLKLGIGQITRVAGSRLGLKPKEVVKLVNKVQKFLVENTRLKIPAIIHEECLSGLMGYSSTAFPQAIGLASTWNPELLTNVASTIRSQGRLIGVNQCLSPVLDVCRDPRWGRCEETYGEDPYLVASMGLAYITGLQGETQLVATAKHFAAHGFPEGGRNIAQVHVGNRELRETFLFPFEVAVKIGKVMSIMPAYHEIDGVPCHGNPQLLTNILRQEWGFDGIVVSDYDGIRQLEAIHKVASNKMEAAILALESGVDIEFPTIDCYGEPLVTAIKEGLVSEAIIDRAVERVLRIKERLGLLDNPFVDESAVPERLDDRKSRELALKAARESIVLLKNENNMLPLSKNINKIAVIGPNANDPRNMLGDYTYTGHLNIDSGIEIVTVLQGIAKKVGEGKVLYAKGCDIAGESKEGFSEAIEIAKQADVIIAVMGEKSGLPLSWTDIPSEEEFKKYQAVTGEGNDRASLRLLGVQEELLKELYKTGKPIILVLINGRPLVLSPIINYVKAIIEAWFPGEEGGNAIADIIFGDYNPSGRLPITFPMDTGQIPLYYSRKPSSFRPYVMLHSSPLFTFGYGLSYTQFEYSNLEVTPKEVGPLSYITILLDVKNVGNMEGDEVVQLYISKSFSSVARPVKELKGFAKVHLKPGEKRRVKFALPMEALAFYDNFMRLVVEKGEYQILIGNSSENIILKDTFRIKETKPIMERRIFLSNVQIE

O=[N+]([O-])c1ccc(O[C@@H]2OC[C@@H](O)[C@H](O)[C@H]2O)cc1 [pNPX]
colorimetric pNP release at 420 nm: performed with 4-nitrophenol-β-D-xylopyranoside (pNPX) as a substrate
